Results on 19 compounds are retold here after patent US8148577B2, “Polyamines useful as anti-parasitic and anti-cancer therapeutics and as lysine-specific demethylase inhibitors” (The Johns Hopkins University, priority 2005, dated 2012).

For test [1], the system named is H157 (non-small cell lung carcinoma) cells. The experiment in a line: Polyamine levels in H157 cells following treatment. The test is classed as cell-based, human. The conditions noted are these: for Polyamine Level, Spm: spermine (Spm). Here is the method: (§1) Putrescine, spermidine, and spermine polyamine levels in H157 and H82 cells following exposure to select compounds were performed. Polyamine levels were determined using the precolumn dansylation labeling, reverse-phase high-pressure liquid chromatography method as described by Kabra et al., J. Chromotography, 380:19 (1986). The results are show in Tables 6 and 11 for H157 and H82 cells respectively. The compound identifier, treatment concentration, observed polyamine level, and exposure time are listed in columns 1, 2, 3, and 4 respectively. Polyamine levels are reported as increased (inc), decrease (dec), or no change (N/C). In some case the specific levels of putrescine, spermidine, and/or spermine are listed.

For test [2] the test system is unchanged. Nature of the test: 96 hr MTS dose response experiment in H157 cells. The test is classed as cell-based, human. To be noted: a range means IC50 lies between the two tested concentrations. How it is done:
(§2) MTS dose response experiments in H157, H82, and A549 cells following a 96 hr exposure with select compounds were performed. MTS is a standard colorimetric assay used for measuring metabolic activity in cells. MTS experiments were performed by CellTiter 96® AQueuos One Solution Cell Proliferation Assay from Promega Corporation. Briefly, the cells were seeded at 3000 cells/well on a 96 well tissue culture plate containing 100 ul of medium/well and allowed to attach overnight. The medium was then aspirated and replaced with 100 ul of fresh medium containing the appropriate concentration of the compound being tested and incubated for 96 hrs at 37° C. and 5% CO2. Compounds are routinely tested at concentrations ranging from 0.1 micromolar to 50 micromolar. Wells not containing the test compound were present and used as a control. Following treatment, 20 ul of MTS reagent was added to each well and incubated at 37° C. for 1.5 hrs. The absorbance of each well was then measured at 490 nm and used to determine the metabolic activity of the cells in the presence of the test compound, relative to the control. IC50 values for the test compounds were extracted based on the results.
(§3) Note that the results for a 72 hr exposure in addition to the 96 hr exposure are shown for compound 49-TDW-29C in the H157 cells. […] FIG. 1 depicts the results of a 96 hr MTS dose response experiments for compound 46-TDW-23c in H157, A549, H82 and Beas2B cells. FIG. 2 depicts the results of a 96 hr MTS dose response experiments for compound 49-TDW-9 in H157, A549, H82 and Beas2B cells. FIG. 3 depicts the results of a 96 hr MTS dose response experiments for compound 42-TDW-21c in H157, A549, H82 and Beas2B cells. FIG. 4 depicts the results of a 96 hr MTS dose response experiments for compound 46-TDW-19c in H157, A549, H82 and Beas2B cells. FIG. 5 depicts the results of a 96 hr MTS dose response experiments for compound 49-TDW-17c in H157, A549, H82 and Beas2B cells. FIG. 6 depicts the results of a 96 hr MTS dose response experiments for compound 40-TDW-37 in H157, A549, H82 and Beas2B cells. FIG. 7 depicts the results of a 96 hr MTS dose response experiments for compound 42-TDW-4 in H157, A549, H82 and Beas2B cells. FIG. 8 depicts the results of a 96 hr MTS dose response experiments for compound 49-TDW-29c in H157, A549, H82 and Beas2B cells. FIG. 9 depicts the results of a 96 hr MTS dose response experiments for compound 49-TDW-32c in H157, A549, H82 and Beas2B cells. FIG. 10 depicts the results of a 96 hr MTS dose response experiments for compound 46-TDW-35c in H157, A549, H82 and Beas2B cells. FIG. 11 depicts the results of a 96 hr MTS dose response experiments for compound 39-TDW-3 in H157, A549, and H82 cells. FIG. 12 depicts the results of a 96 hr MTS dose response experiments for compound 39-TDW-12c in […], and A549 cells. FIG. 13 depicts the results of a 96 hr MTS dose response experiments for compound 39-TDW-20c in H157, and H82 cells. FIG. 14 depicts the results of a 96 hr MTS dose response experiments for compounds 39-TDw-47c and 39-TDW-43 in H157 cells. FIG. 15 depicts the results of a 96 hr MTS dose response experiments for compounds 42-TDW-9, 42-TDW-4c/6, 40-TDW-35, 42-TDW-38 and BENSpm in H157 cells. FIG. 16 depicts the results of a 96 hr MTS dose response experiments for compounds 46-TDW-34c, 42-TDW-12, 40-TDW-48, 46-TDW-44c and BENSpm in H157 cells. FIG. 17 depicts the results of a 96 hr MTS dose response experiments for compounds 42-TDW-20c, 46-TDW-22, 46-TDW-39, 49-TDW-29c and BENSpm in H157 cells. FIG. 18 depicts the results of a 96 hr MTS dose response experiments for compounds 39-TDW-43, 42-TDW-48c, 46-TDW-9, 46-TDW-23c and BENSpm in H157 cells. FIG. 19 depicts the results of a 96 hr MTS dose response experiments for compounds 42-TDW-35c, 46-TDW-44 and BENSpm in H157 cells.

Test [3] has as its system H82 (small lung cell carcinoma) cells. The experiment in a line: 96 hr MTS dose response experiments in H82 cells. The test is classed as cell-based, human. Here is the method: as §2, §3
For another test, the system named is H82 cells. Nature of the test: Polyamine levels in H82 cells following treatment. The test is classed as cell-based, human. To be noted: 24 hr. Here is the method: as §1
Test [4] deals with P19 embryonal carcinoma cells. To be noted: P19 embryonal carcinoma cells treated; cited from earlier work.
For another test, the system named is A549 cells. The experiment in a line: 96 hr MTS dose response experiments in A549 cells. The test is classed as cell-based. The conditions noted are these: Homo sapiens, 96 hr exposure. Here is the method:
as §2
Note that the results for a 72 hr exposure in addition to the 96 hr exposure are shown for compound 49-TDW-29C in the H157 cells. […]

Setting [5] is: 10 uM, 24 hr, inc = increased, dec = decrease, N/C = no change.
The mark [6] stands for this setting: Homo sapiens, NCI-H157, 96 hr exposure.
[7] abbreviates: Homo sapiens, NCI-H82, 96 hr exposure.

As to `CCNCCCNCCCNCCCNCC1CCC2CC1C2(C)C` (stereo not drawn) [ZQW-36], in test [1] (setting [5]), the “Polyamine Level” value is on record as “slight dec”. Besides, the “Polyamine Level, Spm” value in test [1] (10 uM, 24 hr) is given as “inc”. Moreover, the concentration for half-maximal inhibition (IC50) in test [2] (setting [6]) and in test [3] (setting [7]) was 1 to 10 µM throughout.
Take `C=C(C)NCCCNCCCNCCCN` [ZQW-35-7c]: the “Polyamine Level” value is given as “slight dec” in test [1] (5 uM, 24 hr); “dec” in test [1] (setting [5]); “N/C” in the test on H82 cells (10 uM). In test [2] (setting [6]), the IC50 was above 10 µM.
`CCSCCNCCCNCCCNCCCNCCSCC` [49-TDW-15]: the 50% inhibitory concentration (IC50) in test [2] (96 hr exposure) lay in the range of 0.5 to 1 µM; in test [3] (96 hr exposure) it was 10 to 50 µM.
Take `NC1CCC(NCCCNCC2CC2)C1` (stereo not drawn) [UNS-31-21c]: the “Polyamine Level” value is given as “dec” in test [1] (setting [5]) and “slight inc” with H82 cells (10 uM). Also, the “Polyamine Level, Spm” value in test [1] (10 uM, 24 hr) is reported as “same”.
Regarding `C=C(C)NCCCNCCCNCCCNC(=C)C` [ZQW-35-8], the “Polyamine Level” value is listed as “N/C” in test [1] (setting [5]) and “N/C, slight” in the test on H82 cells (10 uM). In test [2] (setting [6]), the IC50 is above 10 µM.
For `CC1(C)C2CCC(CNCCCNCCCNCCCN)C1C2` (stereo not drawn) [ZQW-35c], the half-inhibitory concentration (IC50) in test [2] (setting [6]) and in test [3] (setting [7]) was 1 to 10 µM each time.
Consider `CCCCNCCCNCCCNCCCNCCCC` [ZQW-14c], for which the “Polyamine Level” value (in test [1] (setting [5]); in the test with H82 cells (10 uM)) was “slowly dec” throughout.
For `C=C(CNCC)CNCCCNCCCNCC` [ZQW-46], the “Polyamine Level” value in test [1] (setting [5]) is “N/C”; with H82 cells (5-uM) it was “dec”. For the same compound, it took 13 µM to reach half-maximal inhibition in test [2] (setting [6]) (IC50).
For the compound `N[C@@H]1C[C@H]1c1ccccc1` [tranylcypromine, (1R,2S)-2-phenylcyclopropan-1-amine], the “effect on transcription of Egr1 and Oct4 genes” value in test [4] is “transcriptional de-repression of the Egr1 and Oct4 genes”.
For the compound `CCNCCCNCCCNCCCNCCCCc1cc2cccc3ccc4cccc1c4c32` [40-TDW-23], the IC50 in test [2] (96 hr exposure) and in test [3] (96 hr exposure) was 10 to 50 µM each time.
As to `CCCCNCCCNCCCNCCCN` [ZQW-16c], the “Polyamine Level” value in test [1] (setting [5]) is given as “slowly inc”; in the test on H82 cells (0-10 uM) it was “slight inc”; in the test on H82 cells (10 uM), “dec ~50%”.
As to `CCNCCCNCCCNCCCNCc1ccccc1-c1ccccc1` [39-TDW-20c], the IC50 in test [2] (setting [6]) was 2.76 to 5.52 µM; in test [3] (setting [7]), 2.76 to 5.52 µM; in the test on A549 cells, above 10 µM.
Regarding `CC1(C)C2CCC(CNCCCNCCCNCCCNCC3CCC4CC3C4(C)C)C1C2` (stereo not drawn) [ZQW-35], the “Polyamine Level” value in test [1] (4 uM, 24 hr) was “N/C”. For the same compound, the IC50 was 1 to 10 µM in test [2] (setting [6]) and below 1 µM in test [3] (setting [7]).
Regarding `C1CCC(CNCCCNCC2CCCC(CNCCCNCC3CCCCC3)C2)CC1` (stereo not drawn) [UNS-31-7A], the “Polyamine Level” value (in test [1] (setting [5]); with H82 cells (10 uM)) was “slight dec” throughout.
For the compound `c1ccc(-c2ccccc2CNCCCNCCCNCCCNCc2ccccc2-c2ccccc2)cc1` [39-TDW-3], the values for the IC50 (in test [2] (setting [6]); in test [3] (setting [7]); in the test on A549 cells) were 0.53 to 2.7 µM, 0.53 to 2.7 µM and 1 to 10 µM, respectively.
As for `C=C(CNCCCNCC)CNCCCNCC` [ZQW-44], the “Polyamine Level” value in test [1] (setting [5]) is “N/C”; in the test on H82 cells (50 uM), “inc”. This compound registered a 50% inhibitory concentration (IC50) in test [2] (setting [6]) above 13 µM.
Consider `CC(C)(C)CCNCCCNCCCNCCCNCC(F)(F)F` [40-TDW-19], for which the concentration for half-maximal inhibition (IC50) in test [2] (setting [6]) was in the range of 5.3 to 26.5 µM; in test [3] (setting [7]) it was 5 to 10 µM.
On to `CCNCCCN(CCCN)CCCCCCCNCCCNCC1CCCCCC1` [ZQW-27-11C], for which the “Polyamine Level” value in test [1] (10 uM, 96 hr) is listed as “N/C”; in the test on H82 cells (10 uM) it was “dec ~50%”.
Turning to `C=C(C)NCCCNCCCNCCCNCC` [ZQW-35-8c], the “Polyamine Level” value in test [1] (setting [5]) is on record as “dec”; in the test on H82 cells (10 uM) it was “N/C, slight”. In test [1] (spermidine and spermine, 10 uM, 24 hr), the “Polyamine Level, spd, spm” value is 1 g dec. In addition, the IC50 in test [2] (setting [6]) was 1 to 10 µM.
